Reference: PMC4767141, “Discovery of Potent, Orally Bioavailable, Small-Molecule Inhibitors of WNT Signaling from a Cell-Based Pathway Screen” (Journal of Medicinal Chemistry, 2015)

Experiments:
SRPK1 = molecular target: T1, SRPK1 (Homo sapiens, UniProt Q96SB4); experiment: Millipore kinase panel; format: biochemical; details: read-out: % Control
T1 construct: purchased Millipore KinaseProfiler (kinases); Cerep (receptors and ion channels)

NEK3 = molecular target: T2, NEK3 (Homo sapiens, UniProt P51956); experiment: Millipore kinase panel; format: biochemical; details: read-out: % Control
T2 construct: purchased Millipore KinaseProfiler (kinases); Cerep (receptors and ion channels)

M1 (h) = molecular target: T3, M1 (h) (Homo sapiens, UniProt P11229); experiment: CEREP binding panel; details: antagonist radioligand, read-out: % Inhibition of Control Specific Binding
T3 construct: purchased Millipore KinaseProfiler (kinases); Cerep (receptors and ion channels)

EPHA2 = molecular target: T4, EPHA2 (Homo sapiens, UniProt P29317); experiment: Millipore kinase panel; format: biochemical; details: read-out: % Control
T4 construct: purchased Millipore KinaseProfiler (kinases); Cerep (receptors and ion channels)

MELK = molecular target: T5, MELK (Homo sapiens, UniProt Q14680); experiment: Millipore kinase panel; format: biochemical; details: read-out: % Control
T5 construct: purchased Millipore KinaseProfiler (kinases); Cerep (receptors and ion channels)

TRKB = molecular target: T6, TRKB (Homo sapiens, UniProt Q16620); experiment: Millipore kinase panel; format: biochemical; details: read-out: % Control
T6 construct: purchased Millipore KinaseProfiler (kinases); Cerep (receptors and ion channels)
T6 sequence (Q16620 32-822): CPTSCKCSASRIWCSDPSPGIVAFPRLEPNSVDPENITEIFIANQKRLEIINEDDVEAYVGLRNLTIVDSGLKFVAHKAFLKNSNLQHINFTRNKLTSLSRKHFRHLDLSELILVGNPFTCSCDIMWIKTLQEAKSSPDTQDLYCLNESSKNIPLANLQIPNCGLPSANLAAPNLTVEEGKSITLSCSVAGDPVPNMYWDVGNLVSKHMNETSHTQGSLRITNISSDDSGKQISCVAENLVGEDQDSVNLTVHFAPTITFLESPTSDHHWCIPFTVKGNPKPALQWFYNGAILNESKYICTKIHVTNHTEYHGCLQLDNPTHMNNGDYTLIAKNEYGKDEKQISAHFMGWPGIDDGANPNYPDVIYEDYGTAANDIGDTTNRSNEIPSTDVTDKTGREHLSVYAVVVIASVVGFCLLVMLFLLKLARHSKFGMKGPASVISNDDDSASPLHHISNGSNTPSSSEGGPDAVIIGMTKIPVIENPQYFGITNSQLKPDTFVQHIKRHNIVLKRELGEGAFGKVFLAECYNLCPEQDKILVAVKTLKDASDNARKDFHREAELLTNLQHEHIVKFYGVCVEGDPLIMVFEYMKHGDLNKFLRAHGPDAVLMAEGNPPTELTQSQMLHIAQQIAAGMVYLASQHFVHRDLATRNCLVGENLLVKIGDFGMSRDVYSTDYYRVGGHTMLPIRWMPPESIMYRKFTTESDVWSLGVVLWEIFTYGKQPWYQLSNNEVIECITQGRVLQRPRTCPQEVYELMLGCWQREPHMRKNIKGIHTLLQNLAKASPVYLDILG

IRAK1 = molecular target: T7, IRAK1 (Homo sapiens, UniProt P51617); experiment: Millipore kinase panel; format: biochemical; details: read-out: % Control
T7 construct: purchased Millipore KinaseProfiler (kinases); Cerep (receptors and ion channels)
T7 sequence (P51617 whole entry): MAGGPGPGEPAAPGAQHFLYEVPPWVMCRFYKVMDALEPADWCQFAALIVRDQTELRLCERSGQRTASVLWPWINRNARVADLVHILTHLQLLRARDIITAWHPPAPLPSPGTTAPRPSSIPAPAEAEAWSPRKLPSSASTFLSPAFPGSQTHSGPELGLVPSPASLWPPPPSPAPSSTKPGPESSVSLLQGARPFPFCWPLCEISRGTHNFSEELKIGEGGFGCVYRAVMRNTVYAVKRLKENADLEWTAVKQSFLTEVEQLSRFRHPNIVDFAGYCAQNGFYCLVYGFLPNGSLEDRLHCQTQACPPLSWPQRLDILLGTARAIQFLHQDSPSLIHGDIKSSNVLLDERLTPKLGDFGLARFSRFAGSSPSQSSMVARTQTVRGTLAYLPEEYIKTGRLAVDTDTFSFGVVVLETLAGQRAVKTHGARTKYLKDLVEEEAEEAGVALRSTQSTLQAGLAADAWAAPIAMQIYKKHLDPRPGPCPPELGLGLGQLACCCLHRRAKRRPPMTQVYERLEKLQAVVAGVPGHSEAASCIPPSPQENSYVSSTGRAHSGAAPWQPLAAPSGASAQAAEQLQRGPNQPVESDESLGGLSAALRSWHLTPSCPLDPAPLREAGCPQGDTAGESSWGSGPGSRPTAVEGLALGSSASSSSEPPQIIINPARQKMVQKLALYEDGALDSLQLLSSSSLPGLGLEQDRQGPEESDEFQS

WNK3 = molecular target: T8, WNK3 (Homo sapiens, UniProt Q9BYP7); experiment: Millipore kinase panel; format: biochemical; details: read-out: % Control
T8 construct: purchased Millipore KinaseProfiler (kinases); Cerep (receptors and ion channels)

ULK3 = molecular target: T9, ULK3 (Homo sapiens, UniProt Q6PHR2); experiment: Millipore kinase panel; format: biochemical; details: read-out: % Control
T9 construct: purchased Millipore KinaseProfiler (kinases); Cerep (receptors and ion channels)
T9 sequence (Q6PHR2 whole entry): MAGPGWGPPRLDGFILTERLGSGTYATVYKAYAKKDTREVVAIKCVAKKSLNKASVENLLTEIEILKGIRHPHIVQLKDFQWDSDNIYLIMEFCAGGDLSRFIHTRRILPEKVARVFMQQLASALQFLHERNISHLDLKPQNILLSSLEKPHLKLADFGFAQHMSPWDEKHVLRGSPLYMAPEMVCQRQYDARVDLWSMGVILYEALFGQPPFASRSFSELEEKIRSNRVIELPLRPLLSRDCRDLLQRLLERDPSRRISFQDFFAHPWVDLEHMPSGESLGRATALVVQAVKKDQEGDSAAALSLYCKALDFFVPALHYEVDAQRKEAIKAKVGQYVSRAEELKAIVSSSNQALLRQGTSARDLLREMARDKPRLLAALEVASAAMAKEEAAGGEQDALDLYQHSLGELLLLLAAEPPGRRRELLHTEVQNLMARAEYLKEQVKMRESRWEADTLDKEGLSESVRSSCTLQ

CK2 = molecular target: T10, CK2 (Homo sapiens, UniProt P68400); experiment: Millipore kinase panel; format: biochemical; details: read-out: % Control
T10 construct: purchased Millipore KinaseProfiler (kinases); Cerep (receptors and ion channels)

FGFR1 = molecular target: T11, FGFR1 (Homo sapiens, UniProt P11362); experiment: Millipore kinase panel; format: biochemical; details: read-out: % Control
T11 construct: purchased Millipore KinaseProfiler (kinases); Cerep (receptors and ion channels)

GRK6 = molecular target: T12, GRK6 (Homo sapiens, UniProt P43250); experiment: Millipore kinase panel; format: biochemical; details: read-out: % Control
T12 construct: purchased Millipore KinaseProfiler (kinases); Cerep (receptors and ion channels)

FGR = molecular target: T13, FGR (Homo sapiens, UniProt P09769); experiment: Millipore kinase panel; format: biochemical; details: read-out: % Control
T13 construct: purchased Millipore KinaseProfiler (kinases); Cerep (receptors and ion channels)

PASK = molecular target: T14, PASK (Homo sapiens, UniProt Q96RG2); experiment: Millipore kinase panel; format: biochemical; details: read-out: % Control
T14 construct: purchased Millipore KinaseProfiler (kinases); Cerep (receptors and ion channels)

Na+ channel (site 2) = experiment: CEREP binding panel; details: 10 μM, antagonist radioligand
[1] = molecular target: T15, norepinephrine transporter (h) (Homo sapiens, UniProt P23975); experiment: CEREP binding panel; details: antagonist radioligand, read-out: % Inhibition of Control Specific Binding
T15 construct: purchased Millipore KinaseProfiler (kinases); Cerep (receptors and ion channels)

SIK = molecular target: T16, SIK (Homo sapiens, UniProt P57059); experiment: Millipore kinase panel; format: biochemical; details: read-out: % Control
T16 construct: purchased Millipore KinaseProfiler (kinases); Cerep (receptors and ion channels)

GAL2 (h) = molecular target: T17, GAL2 (h) (Homo sapiens, UniProt O43603); experiment: CEREP binding panel; details: agonist radioligand, read-out: % Inhibition of Control Specific Binding
T17 construct: purchased Millipore KinaseProfiler (kinases); Cerep (receptors and ion channels)
T17 sequence (O43603 whole entry): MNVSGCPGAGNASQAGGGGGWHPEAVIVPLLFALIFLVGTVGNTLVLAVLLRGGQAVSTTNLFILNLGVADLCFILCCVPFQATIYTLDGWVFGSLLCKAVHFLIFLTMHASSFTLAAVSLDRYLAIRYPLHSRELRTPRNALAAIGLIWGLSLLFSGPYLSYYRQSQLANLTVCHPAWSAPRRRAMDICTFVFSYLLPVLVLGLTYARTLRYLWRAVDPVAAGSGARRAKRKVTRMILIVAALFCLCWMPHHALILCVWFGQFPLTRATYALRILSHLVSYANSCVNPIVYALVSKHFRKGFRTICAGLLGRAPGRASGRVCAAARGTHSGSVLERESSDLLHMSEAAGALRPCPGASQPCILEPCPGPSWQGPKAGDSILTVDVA

DCAMKL2 = molecular target: T18, DCAMKL2 (Homo sapiens, UniProt Q8N568); experiment: Millipore kinase panel; format: biochemical; details: read-out: % Control
T18 construct: purchased Millipore KinaseProfiler (kinases); Cerep (receptors and ion channels)

ASK1 = molecular target: T19, ASK1 (Homo sapiens, UniProt Q99683); experiment: Millipore kinase panel; format: biochemical; details: read-out: % Control
T19 construct: purchased Millipore KinaseProfiler (kinases); Cerep (receptors and ion channels)

Y2 (h) = molecular target: T20, Y2 (h) (Homo sapiens, UniProt P49146); experiment: CEREP binding panel; details: agonist radioligand, read-out: % Inhibition of Control Specific Binding
T20 construct: purchased Millipore KinaseProfiler (kinases); Cerep (receptors and ion channels)

MSSK1 = molecular target: T21, MSSK1 (Homo sapiens, UniProt Q9UPE1); experiment: Millipore kinase panel; format: biochemical; details: read-out: % Control
T21 construct: purchased Millipore KinaseProfiler (kinases); Cerep (receptors and ion channels)
T21 sequence (Q9UPE1 whole entry): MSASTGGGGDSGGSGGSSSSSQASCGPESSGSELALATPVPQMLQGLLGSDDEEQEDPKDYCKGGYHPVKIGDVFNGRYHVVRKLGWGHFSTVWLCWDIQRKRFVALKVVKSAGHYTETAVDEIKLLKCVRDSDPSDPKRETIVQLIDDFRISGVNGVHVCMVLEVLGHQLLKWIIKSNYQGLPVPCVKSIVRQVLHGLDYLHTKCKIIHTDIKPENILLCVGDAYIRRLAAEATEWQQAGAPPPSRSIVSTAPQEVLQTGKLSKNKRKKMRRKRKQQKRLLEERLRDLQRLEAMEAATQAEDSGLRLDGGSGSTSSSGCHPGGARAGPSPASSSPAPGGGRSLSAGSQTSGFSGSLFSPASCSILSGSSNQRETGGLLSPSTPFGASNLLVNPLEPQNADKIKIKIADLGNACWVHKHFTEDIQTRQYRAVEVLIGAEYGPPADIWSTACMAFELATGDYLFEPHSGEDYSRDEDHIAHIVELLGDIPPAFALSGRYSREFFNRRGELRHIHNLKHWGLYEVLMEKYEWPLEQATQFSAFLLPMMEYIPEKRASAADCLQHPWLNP

μ (MOP) (h) = molecular target: T22, μ (MOP) (h) (Homo sapiens, UniProt P35372); experiment: CEREP binding panel; details: 10 μM, agonist radioligand
T22 construct: purchased Millipore KinaseProfiler (kinases); Cerep (receptors and ion channels)

ETA (h) = molecular target: T23, ETA (h) (Homo sapiens, UniProt P25101); experiment: CEREP binding panel; details: agonist radioligand, read-out: % Inhibition of Control Specific Binding
T23 construct: purchased Millipore KinaseProfiler (kinases); Cerep (receptors and ion channels)

EPHA1 = molecular target: T24, EPHA1 (Homo sapiens, UniProt P21709); experiment: Millipore kinase panel; format: biochemical; details: read-out: % Control
T24 construct: purchased Millipore KinaseProfiler (kinases); Cerep (receptors and ion channels)
T24 sequence (P21709 26-976): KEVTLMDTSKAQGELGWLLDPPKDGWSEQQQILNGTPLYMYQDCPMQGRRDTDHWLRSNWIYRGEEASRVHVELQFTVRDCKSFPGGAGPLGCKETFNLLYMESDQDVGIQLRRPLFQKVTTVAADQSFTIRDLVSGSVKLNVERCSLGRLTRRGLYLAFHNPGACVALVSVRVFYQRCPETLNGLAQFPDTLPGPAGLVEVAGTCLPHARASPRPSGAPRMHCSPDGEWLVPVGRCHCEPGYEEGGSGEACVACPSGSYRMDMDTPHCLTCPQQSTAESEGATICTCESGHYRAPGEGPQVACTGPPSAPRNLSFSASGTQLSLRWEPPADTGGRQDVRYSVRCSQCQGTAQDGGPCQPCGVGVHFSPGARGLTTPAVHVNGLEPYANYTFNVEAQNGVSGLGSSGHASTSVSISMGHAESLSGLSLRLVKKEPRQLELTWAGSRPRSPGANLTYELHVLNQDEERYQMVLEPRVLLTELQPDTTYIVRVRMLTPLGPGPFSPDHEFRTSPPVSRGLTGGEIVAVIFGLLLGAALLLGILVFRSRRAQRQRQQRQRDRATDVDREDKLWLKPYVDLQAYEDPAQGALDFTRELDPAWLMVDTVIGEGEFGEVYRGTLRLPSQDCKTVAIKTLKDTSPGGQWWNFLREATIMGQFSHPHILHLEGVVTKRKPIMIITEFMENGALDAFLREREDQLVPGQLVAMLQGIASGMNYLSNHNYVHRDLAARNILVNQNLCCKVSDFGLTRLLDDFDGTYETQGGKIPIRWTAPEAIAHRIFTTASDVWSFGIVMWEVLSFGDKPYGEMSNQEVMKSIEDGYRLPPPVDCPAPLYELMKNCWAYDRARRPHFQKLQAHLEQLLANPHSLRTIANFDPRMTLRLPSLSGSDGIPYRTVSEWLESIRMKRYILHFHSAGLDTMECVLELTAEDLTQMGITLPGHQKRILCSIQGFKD

SGK3 = molecular target: T25, SGK3 (Homo sapiens, UniProt Q96BR1); experiment: Millipore kinase panel; format: biochemical; details: read-out: % Control
T25 construct: purchased Millipore KinaseProfiler (kinases); Cerep (receptors and ion channels)

MAPKAP-K2 = molecular target: T26, MAPKAP-K2 (Homo sapiens, UniProt P49137); experiment: Millipore kinase panel; format: biochemical; details: read-out: % Control
T26 construct: purchased Millipore KinaseProfiler (kinases); Cerep (receptors and ion channels)

ITK = molecular target: T27, ITK (Homo sapiens, UniProt Q08881); experiment: Millipore kinase panel; format: biochemical; details: read-out: % Control
T27 construct: purchased Millipore KinaseProfiler (kinases); Cerep (receptors and ion channels)

RSK1 = molecular target: T28, RSK1 (Homo sapiens, UniProt Q15418); experiment: Millipore kinase panel; format: biochemical; details: read-out: % Control
T28 construct: purchased Millipore KinaseProfiler (kinases); Cerep (receptors and ion channels)

GCK = molecular target: T29, GCK (Homo sapiens, UniProt Q12851); experiment: Millipore kinase panel; format: biochemical; details: read-out: % Control
T29 construct: purchased Millipore KinaseProfiler (kinases); Cerep (receptors and ion channels)

FGFR3 = molecular target: T30, FGFR3 (Homo sapiens, UniProt P22607); experiment: Millipore kinase panel; format: biochemical; details: read-out: % Control
T30 construct: purchased Millipore KinaseProfiler (kinases); Cerep (receptors and ion channels)

MST2 = molecular target: T31, MST2 (Homo sapiens, UniProt Q13188); experiment: Millipore kinase panel; format: biochemical; details: read-out: % Control
T31 construct: purchased Millipore KinaseProfiler (kinases); Cerep (receptors and ion channels)

TRKA = molecular target: T32, TRKA (Homo sapiens, UniProt P04629); experiment: Millipore kinase panel; format: biochemical; details: read-out: % Control
T32 construct: purchased Millipore KinaseProfiler (kinases); Cerep (receptors and ion channels)

BTK = molecular target: T33, BTK (Homo sapiens, UniProt Q06187); experiment: Millipore kinase panel; format: biochemical; details: read-out: % Control
T33 construct: purchased Millipore KinaseProfiler (kinases); Cerep (receptors and ion channels)

dopamine transporter (h) = molecular target: T34, dopamine transporter (h) (Homo sapiens, UniProt Q01959); experiment: CEREP binding panel; details: antagonist radioligand, read-out: % Inhibition of Control Specific Binding
T34 construct: purchased Millipore KinaseProfiler (kinases); Cerep (receptors and ion channels)

BRSK1 = molecular target: T35, BRSK1 (Homo sapiens, UniProt Q8TDC3); experiment: Millipore kinase panel; format: biochemical; details: read-out: % Control
T35 construct: purchased Millipore KinaseProfiler (kinases); Cerep (receptors and ion channels)

PLK3 = molecular target: T36, PLK3 (Homo sapiens, UniProt Q9H4B4); experiment: Millipore kinase panel; format: biochemical; details: read-out: % Control
T36 construct: purchased Millipore KinaseProfiler (kinases); Cerep (receptors and ion channels)

CAMKI = molecular target: T37, CAMKI (Homo sapiens, UniProt Q14012); experiment: Millipore kinase panel; format: biochemical; details: read-out: % Control
T37 construct: purchased Millipore KinaseProfiler (kinases); Cerep (receptors and ion channels)

NK2 (h) = molecular target: T38, NK2 (h) (Homo sapiens, UniProt P21452); experiment: CEREP binding panel; details: agonist radioligand, read-out: % Inhibition of Control Specific Binding
T38 construct: purchased Millipore KinaseProfiler (kinases); Cerep (receptors and ion channels)

EPHB4 = molecular target: T39, EPHB4 (Homo sapiens, UniProt P54760); experiment: Millipore kinase panel; format: biochemical; details: read-out: % Control
T39 construct: purchased Millipore KinaseProfiler (kinases); Cerep (receptors and ion channels)

HIPK2 = molecular target: T40, HIPK2 (Homo sapiens, UniProt Q9H2X6); experiment: Millipore kinase panel; format: biochemical; details: read-out: % Control
T40 construct: purchased Millipore KinaseProfiler (kinases); Cerep (receptors and ion channels)

β1 (h) = molecular target: T41, β1 (h) (Homo sapiens, UniProt P08588); experiment: CEREP binding panel; details: agonist radioligand, read-out: % Inhibition of Control Specific Binding
T41 construct: purchased Millipore KinaseProfiler (kinases); Cerep (receptors and ion channels)
T41 sequence (P08588 whole entry): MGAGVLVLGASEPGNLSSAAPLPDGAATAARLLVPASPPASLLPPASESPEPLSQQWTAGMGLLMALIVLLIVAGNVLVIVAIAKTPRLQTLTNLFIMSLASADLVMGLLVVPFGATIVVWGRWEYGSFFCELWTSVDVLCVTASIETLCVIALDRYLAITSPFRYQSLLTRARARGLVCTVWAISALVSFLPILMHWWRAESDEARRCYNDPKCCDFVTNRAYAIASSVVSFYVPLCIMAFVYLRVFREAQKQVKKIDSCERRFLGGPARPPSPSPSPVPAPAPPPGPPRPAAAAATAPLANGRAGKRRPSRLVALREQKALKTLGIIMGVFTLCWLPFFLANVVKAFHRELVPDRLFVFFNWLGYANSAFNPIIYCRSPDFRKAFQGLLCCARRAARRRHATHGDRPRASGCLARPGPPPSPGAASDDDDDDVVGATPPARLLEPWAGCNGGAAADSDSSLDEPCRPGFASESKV

PIM-2 = molecular target: T42, PIM-2 (Homo sapiens, UniProt Q9P1W9); experiment: Millipore kinase panel; format: biochemical; details: read-out: % Control
T42 construct: purchased Millipore KinaseProfiler (kinases); Cerep (receptors and ion channels)

PKCALPHA = molecular target: T43, PKCALPHA (Homo sapiens, UniProt P17252); experiment: Millipore kinase panel; format: biochemical; details: read-out: % Control
T43 construct: purchased Millipore KinaseProfiler (kinases); Cerep (receptors and ion channels)

## Cn1cc(-c2ccc(-c3cncc(Cl)c3N3CCC4(CCNC4=O)CC3)cc2)cn1 [Compound 74, 8-(3-Chloro-5-(4-(1-methyl-1H-pyrazol-4-yl)phenyl)pyridin-4-yl)-2,8-diazaspiro[4.5]decan-1-one]
SRPK1
  remaining activity at 1 µM: -4%
NEK3
  remaining activity at 1 µM: 15%
M1 (h)
  inhibition at 10 µM: 21%
EPHA2
  remaining activity at 1 µM: -7%
MELK
  remaining activity at 1 µM: 32%
TRKB
  remaining activity at 1 µM: -25%
IRAK1
  remaining activity at 1 µM: -9%
WNK3
  remaining activity at 1 µM: -25%
ULK3
  remaining activity at 1 µM: -2%
CK2
  remaining activity at 1 µM: -7%
FGFR1
  remaining activity at 1 µM: -49%
GRK6
  remaining activity at 1 µM: -1%
FGR
  remaining activity at 1 µM: 0%
PASK
  remaining activity at 1 µM: 18%
Na+ channel (site 2)
  % Inhibition of Control Specific Binding: 29%
[1]
  inhibition at 10 µM: 14%
SIK
  remaining activity at 1 µM: 20%
GAL2 (h)
  inhibition at 10 µM: 2%
DCAMKL2
  remaining activity at 1 µM: 1%
ASK1
  remaining activity at 1 µM: -15%
Y2 (h)
  inhibition at 10 µM: -2%
MSSK1
  remaining activity at 1 µM: -2%
μ (MOP) (h)
  % Inhibition of Control Specific Binding: 42%
ETA (h)
  inhibition at 10 µM: -9%
EPHA1
  remaining activity at 1 µM: -2%
SGK3
  remaining activity at 1 µM: -9%
MAPKAP-K2
  remaining activity at 1 µM: 0%
ITK
  remaining activity at 1 µM: -3%
RSK1
  remaining activity at 1 µM: -23%
GCK
  remaining activity at 1 µM: -28%
FGFR3
  remaining activity at 1 µM: -4%
MST2
  remaining activity at 1 µM: 4%
TRKA
  remaining activity at 1 µM: -7%
BTK
  remaining activity at 1 µM: -3%
Dopamine transporter (h)
  inhibition at 10 µM: 40%
BRSK1
  remaining activity at 1 µM: -25%
PLK3
  remaining activity at 1 µM: 0%
CAMKI
  remaining activity at 1 µM: -12%
NK2 (h)
  inhibition at 10 µM: -17%
EPHB4
  remaining activity at 1 µM: 10%
HIPK2
  remaining activity at 1 µM: -12%
β1 (h)
  inhibition at 10 µM: 5%
PIM-2
  remaining activity at 1 µM: 13%
PKCALPHA
  remaining activity at 1 µM: -5%
